Test results: the supplement of paper PMC10307832

Columns and labels:
Assay in all cases: relative viability (nuclei count vs DMSO), 5 days (fraction); higher = more cells survive
HARA = tested on: HARA
Method in brief: (§1)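 Dosing by pin tool came one day after lung cancer cell lines were seeded in 1536-well plates, using either one drug or a fixed anchor-drug dose plus five library-drug doses (not always all listed) in √10 steps. After 5 days, nuclei were counted on 4× images. Relative viability is treated-well nuclei count divided by vehicle-well nuclei count, and values are medians of duplicate plates.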

BEN = tested on: BEN
Method in brief: as §1

NCI-H1666 = tested on: NCI-H1666
Method in brief: as §1

NCI-H1915 = tested on: NCI-H1915
Method in brief: as §1

NCI-H1563 = tested on: NCI-H1563
Method in brief: as §1

NCI-H1395 = tested on: NCI-H1395
Method in brief: as §1

NCI-H23 = tested on: NCI-H23
Method in brief: as §1

NCI-H2023 = tested on: NCI-H2023
Method in brief: as §1

A-427 = tested on: A-427
Method in brief: as §1

PC-3 [JPC-3] = tested on: PC-3 [JPC-3]
Method in brief: as §1

LXF-289 = tested on: LXF-289
Method in brief: as §1

SK-LU-1 = tested on: SK-LU-1
Method in brief: as §1

NCI-H460 = tested on: NCI-H460
Method in brief: as §1

LU99A = tested on: LU99A
Method in brief: as §1

NCI-H322M = tested on: NCI-H322M
Method in brief: as §1

NCI-H2170 = tested on: NCI-H2170
Method in brief: as §1

NCI-H441 = tested on: NCI-H441
Method in brief: as §1

NCI-H1793 = tested on: NCI-H1793
Method in brief: as §1

NCI-H2342 = tested on: NCI-H2342
Method in brief: as §1

LOU-NH91 = tested on: LOU-NH91
Method in brief: as §1

NCI-H2126 = tested on: NCI-H2126
Method in brief: as §1

LCLC-97TM1 = tested on: LCLC-97TM1
Method in brief: as §1

## COCC1(CO)C(=O)C2CCN1CC2 (centres undefined) [PRIMA-1MET] + Cc1nc(Nc2ncc(C(=O)Nc3c(C)cccc3Cl)s2)cc(N2CCN(CCO)CC2)n1 [Dasatinib] (partner 0.075 µM)
HARA; first compound 0.2 µM
  relative viability: 0.303
HARA; first compound 0.6325 µM
  relative viability: 0.257
HARA; first compound 6.325 µM
  relative viability: 0.294
HARA; first compound 20 µM
  relative viability: 0.252
BEN; first compound 0.2 µM
  relative viability: 0.306
BEN; first compound 0.6325 µM
  relative viability: 0.279
BEN; first compound 6.325 µM
  relative viability: 0.271
BEN; first compound 20 µM
  relative viability: 0.339
NCI-H1666; first compound 0.2 µM
  relative viability: 0.801
NCI-H1666; first compound 0.6325 µM
  relative viability: 0.79
NCI-H1666; first compound 2 µM
  relative viability: 0.807
NCI-H1666; first compound 6.325 µM
  relative viability: 0.846
NCI-H1666; first compound 20 µM
  relative viability: 0.639
NCI-H1915; first compound 0.2 µM
  relative viability: 0.328
NCI-H1915; first compound 0.6325 µM
  relative viability: 0.284
NCI-H1915; first compound 6.325 µM
  relative viability: 0.269
NCI-H1915; first compound 20 µM
  relative viability: 0.272
NCI-H1563; first compound 0.2 µM
  relative viability: 0.502
NCI-H1563; first compound 0.6325 µM
  relative viability: 0.426
NCI-H1563; first compound 6.325 µM
  relative viability: 0.548
NCI-H1563; first compound 20 µM
  relative viability: 0.422
NCI-H1395; first compound 0.2 µM
  relative viability: 0.409
NCI-H1395; first compound 0.6325 µM
  relative viability: 0.458
NCI-H1395; first compound 2 µM
  relative viability: 0.493
NCI-H1395; first compound 6.325 µM
  relative viability: 0.38
NCI-H1395; first compound 20 µM
  relative viability: 0.396
NCI-H23; first compound 0.2 µM
  relative viability: 0.692
NCI-H23; first compound 0.6325 µM
  relative viability: 0.799
NCI-H23; first compound 2 µM
  relative viability: 0.687
NCI-H23; first compound 6.325 µM
  relative viability: 0.721
NCI-H23; first compound 20 µM
  relative viability: 0.221
NCI-H2023; first compound 0.2 µM
  relative viability: 0.601
NCI-H2023; first compound 0.6325 µM
  relative viability: 0.586
NCI-H2023; first compound 2 µM
  relative viability: 0.567
NCI-H2023; first compound 6.325 µM
  relative viability: 0.57
NCI-H2023; first compound 20 µM
  relative viability: 0.229
A-427; first compound 0.2 µM
  relative viability: 0.547
A-427; first compound 0.6325 µM
  relative viability: 0.577
A-427; first compound 2 µM
  relative viability: 0.721
A-427; first compound 6.325 µM
  relative viability: 0.602
A-427; first compound 20 µM
  relative viability: 0.15
PC-3 [JPC-3]; first compound 0.2 µM
  relative viability: 0.977
PC-3 [JPC-3]; first compound 0.6325 µM
  relative viability: 0.977
PC-3 [JPC-3]; first compound 2 µM
  relative viability: 0.96
PC-3 [JPC-3]; first compound 6.325 µM
  relative viability: 0.933
PC-3 [JPC-3]; first compound 20 µM
  relative viability: 0.971
LXF-289; first compound 0.2 µM
  relative viability: 0.277
LXF-289; first compound 0.6325 µM
  relative viability: 0.179
LXF-289; first compound 2 µM
  relative viability: 0.199
LXF-289; first compound 6.325 µM
  relative viability: 0.232
LXF-289; first compound 20 µM
  relative viability: 0.173
SK-LU-1; first compound 0.2 µM
  relative viability: 0.192
SK-LU-1; first compound 0.6325 µM
  relative viability: 0.177
SK-LU-1; first compound 2 µM
  relative viability: 0.186
SK-LU-1; first compound 6.325 µM
  relative viability: 0.155
SK-LU-1; first compound 20 µM
  relative viability: 0.0741
NCI-H460; first compound 0.2 µM
  relative viability: 0.495
NCI-H460; first compound 0.6325 µM
  relative viability: 0.321
NCI-H460; first compound 2 µM
  relative viability: 0.511
NCI-H460; first compound 6.325 µM
  relative viability: 0.518
NCI-H460; first compound 20 µM
  relative viability: 0.196
LU99A; first compound 0.2 µM
  relative viability: 0.612
LU99A; first compound 0.6325 µM
  relative viability: 0.513
LU99A; first compound 2 µM
  relative viability: 0.586
LU99A; first compound 6.325 µM
  relative viability: 0.671
LU99A; first compound 20 µM
  relative viability: 0.0333
NCI-H322M; first compound 0.2 µM
  relative viability: 0.265
NCI-H322M; first compound 0.6325 µM
  relative viability: 0.258
NCI-H322M; first compound 6.325 µM
  relative viability: 0.243
NCI-H322M; first compound 20 µM
  relative viability: 0.0311
NCI-H2170; first compound 0.2 µM
  relative viability: 0.554
NCI-H2170; first compound 0.6325 µM
  relative viability: 0.46
NCI-H2170; first compound 2 µM
  relative viability: 0.497
NCI-H2170; first compound 6.325 µM
  relative viability: 0.604
NCI-H2170; first compound 20 µM
  relative viability: 0.586
NCI-H441; first compound 0.2 µM
  relative viability: 0.461
NCI-H441; first compound 0.6325 µM
  relative viability: 0.728
NCI-H441; first compound 2 µM
  relative viability: 0.544
NCI-H441; first compound 6.325 µM
  relative viability: 0.571
NCI-H441; first compound 20 µM
  relative viability: 0.134
NCI-H1793; first compound 0.2 µM
  relative viability: 0.431
NCI-H1793; first compound 0.6325 µM
  relative viability: 0.365
NCI-H1793; first compound 6.325 µM
  relative viability: 0.404
NCI-H1793; first compound 20 µM
  relative viability: 0.35
NCI-H2342; first compound 0.2 µM
  relative viability: 0.327
NCI-H2342; first compound 0.6325 µM
  relative viability: 0.305
NCI-H2342; first compound 2 µM
  relative viability: 0.347
NCI-H2342; first compound 6.325 µM
  relative viability: 0.295
NCI-H2342; first compound 20 µM
  relative viability: 0.333
LOU-NH91; first compound 0.2 µM
  relative viability: 0.608
LOU-NH91; first compound 0.6325 µM
  relative viability: 0.508
LOU-NH91; first compound 2 µM
  relative viability: 0.569
LOU-NH91; first compound 6.325 µM
  relative viability: 0.578
LOU-NH91; first compound 20 µM
  relative viability: 0.483
NCI-H2126; first compound 0.2 µM
  relative viability: 0.722
NCI-H2126; first compound 0.6325 µM
  relative viability: 0.58
NCI-H2126; first compound 2 µM
  relative viability: 0.643
NCI-H2126; first compound 6.325 µM
  relative viability: 0.646
NCI-H2126; first compound 20 µM
  relative viability: 0.605
LCLC-97TM1; first compound 0.2 µM
  relative viability: 0.461
LCLC-97TM1; first compound 0.6325 µM
  relative viability: 1.01
LCLC-97TM1; first compound 2 µM
  relative viability: 0.815
LCLC-97TM1; first compound 6.325 µM
  relative viability: 0.855
LCLC-97TM1; first compound 20 µM
  relative viability: 0.833
